# Assay results reported in US4870002A, “Method of prevention of oxidative injury to cells” (priority 1985, dated 1989).
# Columns and labels:
# [1] = system: L5178Y murine lymphosarcoma cells; assay: Growth curve after gamma irradiation (final/initial cell density); format: cell-based
# Method: The cell density in a mass culture of thymidine hypoxanthine methotrexate glycine/thymidine hypoxanthine glycine (THMG/THG) treated L5178Y cells was determined by Coulter counter and the cells were diluted with fresh warm F10p medium to bring the cell density for treatment to 600,000 cells/ml. Volumes of 10 ml of cell suspension were distributed into three T-25 flasks, and 0.05 ml volumes of solutions of 3-aminotyrosine, as well as a 0.05 ml of distilled water used as a control, to provide a ratio of 5 microliters per 1 ml of cell suspension (a 1:200 dilution) in each flask. In these experiments, the cells were treated with chemical under reduced lighting, but not as totally light sensitive.
# The cells were then reincubated for 10 minutes at 37° C. The flasks were then placed simultaneously in the chamber of the GammaCell 40 irradiator at room temperature. The dose rate for the Cesium-137 exposure was 121.6 rads/min. It has been determined that the temperature of water in a T-25 flask originally at 37° C. placed in the irradiation chamber decreases during an 8 min period to approximately 30° C. Flasks were removed after exposure of 0, 250 rads (2.5 Gy), 500 rads (5.0 Gy), and 1000 rads (10 Gy).
# After the irradiation, the cells were centrifuged and the supernatant discarded. The cells were resuspended in F10p medium, and again centrifuged. The washing process was repeated and the cells were resuspended in 10 ml of complete medium and counted.
# A growth curve study was performed in duplicate by initiating flasks with 60 ml of cell suspension at 20,000 cells per ml. The cells were incubated at 37° C. with continued rotation in 250 ml plastic Erlenmeyer flasks. The cell density was determined by Coulter counter on a daily basis over a 72 hour period.
# (§1) THMG/THG treated L5178Y cells were mass cultured and the cell density determined. Aliquots of the cell suspension with enough cells to give 300,000 cells per ml in 60 ml (1.8×10^7 cells) were distributed into three 50 ml centrifuge tubes, and after centrifugation, the original growth medium was discarded. The cells were resuspended in GIBCO custom formulation medium which had been prepared without phenol red. The cells were then washed one more time by centrifugation and resuspended again in 10 ml of the phenol red-free medium. These 10 ml suspensions of cells containing 1.8×10^7 cells were then transferred into three flasks already containing 50 ml of phenol red-free medium, distilled water, and either 100 nanomoles/ml or 2 micromoles/ml solutions of 3-aminotyrosine. The exposure system was treated as light sensitive (i.e., procedures were performed under gold light or reduced lighting). The cells were then incubated in the dark at 37° C. for 16 hours. Immediately prior to the end of the 16 hours, the cell density was determined by Coulter counter.
# At 16 hours, the cells were irradiated at 0, 250, 500, and 1000 rads as described above in the GammaCell irradiator at room temperature. Immediately after irradiation was completed, the cells were centrifuged, washed twice with F10p, and resuspended in 10 ml of F10p. The cell density was again determined by Coulter counter. Growth curve determinations with initial seeding at 20,000 cells per ml were performed for 72 hours as described above. Cell survival assay by soft agar colony formation was performed as described above, using 0.22% BBL agar (BBL Microbiology Systems) in place of the DIFCO agar previously employed. After 11 days incubation at 37° C., colonies were counted and cell survival was determined.
# [2] = system: L5178Y murine lymphosarcoma cells; assay: Survival after gamma irradiation by colony formation in soft agar; format: cell-based
# Method: The remainder of the cell suspension after irradiation was used for determination of survival by colony formation in soft agar. For each dose, based on estimated survival probability, different numbers of cells were distributed in soft agar suspension (0.4% DIFCO Noble Agar) into 100 mm petri dishes. The dishes were briefly chilled to gel the agar, and then after brief warming in the laminar flow hood, placed in the 37° C. humidified CO2 incubator. The dishes were incubated for 11 days, and the number of colonies were determined using an Artek Automatic Colony Counter.
# For the control and each 3-aminotyrosine and radiation dose, the percent cloning efficiency (% CE) was determined by dividing the number of colonies counted at 11 days by the number of cells seeded into the agar, times 100. The 0 dose % CE value was taken to be 100% survival for that chemical. The percent (%) survival reported was calculated by dividing the % CE after a given dose of radiation by the 0 dose % CE, times 100.
# as §1, with “lighting).” for “lighting). The cells were then incubated in the dark at 37° C. for 16 hours. Immediately prior to the end of the 16 hours, the cell density was determined by Coulter counter.”
# Immediately after irradiation was completed, the cells were centrifuged, washed twice with F10p, and resuspended in 10 ml of F10p. The cell density was again determined by Coulter counter. […] After 11 days incubation at 37° C., colonies were counted and cell survival was determined.
# [3] = Autoxidation of 3-amino-L-tyrosine solutions; format: physicochemical; conditions: solutions yellow with age
# Text: The binding of 3-amino-L-tyrosine to the cell membrane via its alpha amino group, and the subsequent inhibition of CL by inhibiting the binding of Lu-BSA, is unlikely. […] The subsequent washing removes loosely bound 3-amino-L-tyrosine and the addition of the Lu-BSA at pH 6.9 favors BSA binding by the Schiff base reaction. […] The yellowing of 3-amino-L-tyrosine solutions with age is evidence of the oxidation.
# [4] = Zero hour incubation, 250 rads, 2 micromoles/ml
# [5] = Zero hour incubation, 250 rads, 100 nanomoles/ml
# [6] = Zero hour incubation, 500 rads, 2 micromoles/ml
# [7] = Zero hour incubation, 500 rads, 100 nanomoles/ml
# [8] = Zero hour incubation, 1000 rads, 2 micromoles/ml
# [9] = Zero hour incubation, 1000 rads, 100 nanomoles/ml
compound,measurement,setting,value
"Nc1cc(C[C@H](N)C(=O)O)ccc1O [3-aminotyrosine, 3-amino-L-tyrosine]",Final Cell Density/Initial Cell Density,"[1]; Sixteen hour incubation, 0 rads, 2 micromoles/ml",71.4
same,Final Cell Density/Initial Cell Density,"[1]; Sixteen hour incubation, 0 rads, 100 nanomoles/ml",83.3
same,Final Cell Density/Initial Cell Density,"[1]; Sixteen hour incubation, 250 rads, 2 micromoles/ml",34.6
same,Final Cell Density/Initial Cell Density,"[1]; Sixteen hour incubation, 250 rads, 100 nanomoles/ml",50.5
same,Final Cell Density/Initial Cell Density,"[1]; Sixteen hour incubation, 500 rads, 2 micromoles/ml",6.1
same,Final Cell Density/Initial Cell Density,"[1]; Sixteen hour incubation, 500 rads, 100 nanomoles/ml",5.3
same,Final Cell Density/Initial Cell Density,"[1]; Sixteen hour incubation, 1000 rads, 2 micromoles/ml",1.1
same,Final Cell Density/Initial Cell Density,"[1]; Sixteen hour incubation, 1000 rads, 100 nanomoles/ml",1.3
same,Final Cell Density/Initial Cell Density,"[1]; Zero hour incubation, 0 rads, 2 micromoles/ml",25.0
same,Final Cell Density/Initial Cell Density,"[1]; Zero hour incubation, 0 rads, 100 nanomoles/ml",20.0
same,Final Cell Density/Initial Cell Density,[1]; [4],15.9
same,Final Cell Density/Initial Cell Density,[1]; [5],14.1
same,Final Cell Density/Initial Cell Density,[1]; [6],7.7
same,Final Cell Density/Initial Cell Density,[1]; [7],7.7
same,Final Cell Density/Initial Cell Density,[1]; [8],2.2
same,Final Cell Density/Initial Cell Density,[1]; [9],2.2
same,"Ratio of Percent Survival, 3-Aminotyrosine/Control","[2]; Sixteen hour incubation, 250 rads, 1000 cells seeded, 2 micromoles/ml",0.84
same,"Ratio of Percent Survival, 3-Aminotyrosine/Control","[2]; Sixteen hour incubation, 250 rads, 1000 cells seeded, 100 nanomoles/ml",0.81
same,"Ratio of Percent Survival, 3-Aminotyrosine/Control","[2]; Sixteen hour incubation, 250 rads, 2000 cells seeded, 2 micromoles/ml",0.94
same,"Ratio of Percent Survival, 3-Aminotyrosine/Control","[2]; Sixteen hour incubation, 250 rads, 2000 cells seeded, 100 nanomoles/ml",0.85
same,"Ratio of Percent Survival, 3-Aminotyrosine/Control","[2]; Sixteen hour incubation, 500 rads, 1000 cells seeded, 2 micromoles/ml",1.20
same,"Ratio of Percent Survival, 3-Aminotyrosine/Control","[2]; Sixteen hour incubation, 500 rads, 1000 cells seeded, 100 nanomoles/ml",0.63
same,"Ratio of Percent Survival, 3-Aminotyrosine/Control","[2]; Sixteen hour incubation, 500 rads, 2000 cells seeded, 2 micromoles/ml",1.59
same,"Ratio of Percent Survival, 3-Aminotyrosine/Control","[2]; Sixteen hour incubation, 500 rads, 2000 cells seeded, 100 nanomoles/ml",0.98
same,"Ratio of Percent Survival, 3-Aminotyrosine/Control","[2]; Sixteen hour incubation, 1000 rads, 2.5 × 10^5 cells seeded, 2 micromoles/ml",1.95
same,"Ratio of Percent Survival, 3-Aminotyrosine/Control","[2]; Sixteen hour incubation, 1000 rads, 2.5 × 10^5 cells seeded, 100 nanomoles/ml",4.91
same,"Ratio of Percent Survival, 3-Aminotyrosine/Control","[2]; Sixteen hour incubation, 1000 rads, 5.0 × 10^5 cells seeded, 2 micromoles/ml",3.22
same,"Ratio of Percent Survival, 3-Aminotyrosine/Control","[2]; Sixteen hour incubation, 1000 rads, 5.0 × 10^5 cells seeded, 100 nanomoles/ml",1.27
same,"Ratio of Percent Survival, 3-Aminotyrosine/Control",[2]; [4],0.89
same,"Ratio of Percent Survival, 3-Aminotyrosine/Control",[2]; [5],0.85
same,"Ratio of Percent Survival, 3-Aminotyrosine/Control",[2]; [6],0.63
same,"Ratio of Percent Survival, 3-Aminotyrosine/Control",[2]; [7],0.70
same,"Ratio of Percent Survival, 3-Aminotyrosine/Control",[2]; [8],0.51
same,"Ratio of Percent Survival, 3-Aminotyrosine/Control",[2]; [9],0.56
same,"effect on cell survival after irradiation, in words",[2]; cells preincubated for 16 hours,protective of cell survival
same,"autoxidation in solution, in words",[3],"readily, autoxidizes"
